Assay results: patent US20260026499A1 (priority 2022, published 2026)
Converted amounts (≈) assume the structure as drawn. Read-outs that look alike come from different tables or passages of the source.

Columns and labels:
Format in all cases: cell-based
[1] = system: Fusarium moniliforme; conditions: B = pyraclostrobin; for EC50: Fusarium verticillioides, mycelial growth, method of Example 17; for ATI: ZJS178 as standard reagent
Method: (§1) The above-mentioned F. oxysporum f.sp. lycopersici was inoculated on a PDA medium, and 50 μg/mL salicylhydroxamic acid (SHAM) was added to the culture medium to inhibit the […] bypass respiration.
Test object: Fusarium moniliforme preserved in a culture room of the laboratory. The bioassay method was referred to the description in Example 17.

[2] = system: tebuconazole-sensitive Fusarium graminearum (TS); experiment: microbe, parasite or virus in culture; conditions: for EC50: Fusarium graminearum, 72 h; for Actual Toxicity Index (ATI): ZJS178 as standard reagent, TS strain
[3] = system: Fusarium oxysporum; experiment: microbe, parasite or virus in culture; conditions: for EC50: Fusarium oxysporum, 72 h
[4] = system: Fusarium graminearum; experiment: microbe, parasite or virus in culture; conditions: for ATI: B = prochloraz; for EC50: Fusarium graminearum
[5] = system: Fusarium oxysporum; experiment: microbe, parasite or virus in culture
[6] = system: F. oxysporum f.sp. niveum; conditions: for EC50: Fusarium oxysporum, 72 h
[7] = system: Fusarium fujikuroi; conditions: B = fludioxonil; for EC50: Fusarium fujikuroi, 72 h, mycelial growth, PDA, 25° C., 3 days; for ATI: ZJS178 as standard reagent
Source text: Test object: Fusarium fujikuroi preserved in a culture room of the laboratory.
(§2) The bioassay method was referred to the description in Example 9.

[8] = system: metconazole-sensitive Fusarium fujikuroi(MS); experiment: microbe, parasite or virus in culture
[9] = system: Fusarium fujikuroi; experiment: microbe, parasite or virus in culture; conditions: for EC50: Fusarium fujikuroi, 72 h
[10] = system: metconazole-resistance Fusarium fujikuroi(MR); experiment: microbe, parasite or virus in culture
[11] = system: Fusarium oxysporum; conditions: B = fludioxonil; for EC50: Fusarium oxysporum, 72 h, mycelial growth, PDA, 25° C., 3 days; for ATI: ZJS178 as standard reagent
Source text: Test object: Fusarium oxysporum preserved in the laboratory.
as §2

[12] = system: Fusarium graminearum; experiment: microbe, parasite or virus in culture; conditions: for EC50: Fusarium graminearum, 72 h; for ATI: ZJS178 as standard reagent, B = pydiflumetofen
[13] = system: F. oxysporum f.sp. lycopersici; conditions: B = azoxystrobin; for EC50: mycelial growth, PDA with 50 μg/mL SHAM, 25° C., 3 days; for ATI: ZJS178 as standard reagent
Method: Test object: F. oxysporum f.sp. lycopersici isolated from diseased tomatoes from the field. The tested strains were identified by morphology and pathogenicity, and then stored in the laboratory for future use.
as §1

COC(=O)N(OC)c1ccccc1COc1ccn(-c2ccc(Cl)cc2)n1 [Pyraclostrobin (B), methyl N-[2-[[1-(4-chlorophenyl)pyrazol-3-yl]oxymethyl]phenyl]-N-methoxycarbamate, reference compound]
EC50 [1]: 4.99 µg/mL (≈ 12.9 µM) | ATI [1]: 13.61

CC(C)(C)C(O)(CCc1ccc(Cl)cc1)Cn1cncn1 (racemic) [Tebuconazole (B), (RS)-1-p-chlorophenyl-4,4-dimethyl-3-(1H-1,2,4-triazol-1-ylmethyl)pentan-3-ol, reference compound]
EC50 [2]: 0.175 µg/mL (≈ 0.567 µM) | Actual Toxicity Index (ATI) [2]: 22.05 | ATI [3]: 14.46 | EC50 [3]: 0.276 µg/mL (≈ 0.896 µM)

CCCN(CCOc1c(Cl)cc(Cl)cc1Cl)C(=O)n1ccnc1 [Prochloraz (B), N-propyl-N-[2-(2,4,6-trichlorophenoxy)ethyl]-imidazole-1-carboxamide, reference compound]
ATI [4]: 11.88 | EC50 [4]: 0.319 µg/mL (≈ 0.847 µM)

CCCN(CCOc1c(Cl)cc(Cl)cc1Cl)C(=O)n1ccnc1.CCCN(CCOc1c(Cl)cc(Cl)cc1Cl)C(=O)n1ccnc1.CCCN(CCOc1c(Cl)cc(Cl)cc1Cl)C(=O)n1ccnc1.CCCN(CCOc1c(Cl)cc(Cl)cc1Cl)C(=O)n1ccnc1.[Cl][Mn][Cl] [Prochloraz-manganese chloride, reference compound]
ATI [5]: 14.46 | EC50 [5]: 0.2758 µg/mL

COC(=O)NC(=S)Nc1ccccc1NC(=S)NC(=O)OC [Thiophanate-, 1,2-bis (3-carbomethoxy-2-thioureido)benzene, reference compound]
EC50 [6]: 0.222 µg/mL (≈ 0.65 µM)

CCOC(=O)/C(C#N)=C(\N)c1ccc(N(C)CC)cc1 [ZJS178 (A), ethyl 2-cyano-3-amino-3-[4-(N-ethyl-N-methylamino)phenyl]acrylate]
EC50 [6]: 0.0569 µg/mL (≈ 0.208 µM) | Actual Toxicity Index ([6]; ZJS178 as standard reagent, B = thiophanate-methyl): 100.00 | ATI [4]: 100.00 | EC50 [4]: 0.0379 µg/mL (≈ 0.139 µM) | EC50 [7]: 0.0481 µg/mL (≈ 0.176 µM) | ATI [7]: 100.00 | ATI [8]: 100.00 | EC50 ([8]; Fusarium fujikuroi, 72 h): 0.069 µg/mL (≈ 0.252 µM) | EC50 [2]: 0.0385 µg/mL (≈ 0.141 µM) | Actual Toxicity Index (ATI) [2]: 100.00 | ATI [9]: 100.00 | EC50 [9]: 0.0671 µg/mL (≈ 0.245 µM) | EC50 ([10]; Fusarium fujikuroi, 72 h): 0.0621 µg/mL (≈ 0.227 µM) | ATI ([10]; ZJS178 as standard reagent, MR strain): 100.00 | EC50 [11]: 0.0878 µg/mL (≈ 0.321 µM) | ATI [11]: 100.00 | EC50 [1]: 0.678 µg/mL (≈ 2.48 µM) | ATI [1]: 100.00 | EC50 [12]: 0.0379 µg/mL (≈ 0.139 µM) | ATI [12]: 100.00 | ATI [5]: 100.00 | EC50 ([5]; Fusarium oxysporum): 0.0399 µg/mL (≈ 0.146 µM) | ATI [3]: 100.00 | EC50 [3]: 0.0399 µg/mL (≈ 0.146 µM) | EC50 ([13]; Fusarium oxysporum, 72 h, read-out: EC50): 0.0461 µg/mL | ATI [13]: 100.00

N#Cc1c[nH]cc1-c1cccc2c1OC(F)(F)O2 [Fludioxonil (B), 4-(2,2-difluoro-1,3-benzodioxol-4-yl) pyrrole-3-carbonitrile, reference compound]
EC50 [7]: 0.0529 µg/mL (≈ 0.213 µM) | ATI [7]: 90.93 | EC50 [11]: 0.0683 µg/mL (≈ 0.275 µM) | ATI [11]: 128.55

CO/C=C(/C(=O)OC)c1ccccc1Oc1cc(Oc2ccccc2C#N)ncn1 [Azoxystrobin (B), (E)-methyl 2-{2-[6-(2-cyanophenoxy)pyrimidin-4-yloxy]phenyl}-3-strobilurin, reference compound]
ATI [13]: 5.59 | EC50 [13]: 0.8247 µg/mL

Cc1nn(C)c(F)c1C(=O)Nc1ccccc1C(C)CC(C)C (centres unmarked) [Penflufen (B), 5-fluoro-1,3-dimethyl-N-[2-(4-methylpentan-2-yl)phenyl]-1H-pyrazole-4-carboxamide, reference compound]
ATI [9]: 22.85 | EC50 [9]: 0.294 µg/mL (≈ 0.925 µM)

CON(C(=O)c1cn(C)nc1C(F)F)C(C)Cc1c(Cl)cc(Cl)cc1Cl (racemic) [Pydiflumetofen, 3-(difluoromethyl)-N-methoxy-1-methyl-N-[(RS)-1-methyl-2-(2,4,6-trichlorophenyl)ethyl]pyrazole-4-carboxamide, reference compound]
EC50 [12]: 0.319 µg/mL (≈ 0.748 µM) | ATI [12]: 11.88
